Measurements published in patent publication US10266482B2, “Long-term memory inducing agent” (NATIONAL UNIVERSITY CORPORATION TOKYO MEDICAL AND DENTAL …, priority 2017, dated 2019).

What was measured:
[1] = system: young crickets; assay: Olfactory associative learning test in young crickets (single-time training, memory a day after); type: in vivo, Gryllus bimaculatus
Method: Male crickets about one week old (young) or three week old (aged) following molting into adult forms were used. Each of the crickets was placed into a 100 ml beaker three days before the experiment, and deprived of water for 2-3 days to enhance the desire of taking water. As the feed, about 10 pieces of insect feed were placed into the beaker.
A 1-ml syringe was used for smell and reward associative conditioning upon learning/training. The syringe contained water as the reward while a piece of paper (3 mm×3 mm) perfumed with peppermint essence was pierced into the needle to about 1 cm from the tip thereof. In this learning/training, the filter paper on the needle was brought near the antennae of the cricket to allow it to smell for 3 seconds and then a drop of water was put out from the tip of the needle and applied to the mouth of the cricket. When the associative conditioning was conducted for four times, the conditionings were conducted at intervals of 5 minutes.
Smell preference was examined by placing each cricket into a test arena. The arena consisted of a “standby chamber” and a “test chamber”. The floor of the “test chamber” had two holes each with a diameter of 4 cm which were communicated with two smell sources. The smell source was a plastic pot containing filter paper perfumed with essence of a smell (peppermint or vanilla) and covered with a gauze lid. In the preference test, each cricket was placed into the test chamber and allowed to walk freely for 4 minutes to search for the two smell sources. Two minutes after the start of the test, a rotary board having the smell sources was rotated to reverse the positions of the vanilla and the peppermint smells. During the test, the time the cricket spent placing its mouth to the gauze of the smell source was measured as a visiting time to the smell source, and the ratio of the visiting times of the two types of smells (PI value: preference index) was calculated according to the following formula to assess the relative preference to the mint smell. PI value=Tp/(Tp+Tv)×100 • Tp: Searching time for smell associated with the reward (peppermint) • Tv: Searching time for smell not associated with the reward (vanilla)
If the preferences for the two smells are equivalent, PI will be 50. Since crickets inherently prefer vanilla smell over peppermint smell, an average PI value prior to the learning/training is usually 25-35, The preference test was conducted before and after the learning/training to examine whether preference for the smell changes due to the learning/training.
As drugs, melatonin, N(1)-acetyl-N(2)-formyl-5-methoxykynuramine (AFMK), N(1)-acetyl-5-methoxykynuramine (AMK), 6-Hydroxymelatonin (6-HM), L-kynurenine, kynuramine, 8-Bromoguanoine 3′,5′-cyclic monophosphate sodium salt (8 br-cGMP) and cycloheximide (CHX) were used. Melatonin, 6-HM, kynurenine, kynuramine and 8br-cGMP were purchased from SIGMA Aldrich, AFMK was purchased from Cayman Chemical, AMK was purchased from Toronto Research Chemicals and CHX was purchased from Wako Pure Chemical Industries. The drugs other than 8br-cGMP and CHX were first dissolved in ethanol and then diluted with physiological saline for crickets to the respective concentrations. In the administration experiment, 3 μl was administered using a 10-μl syringe to the brain via an aperture opened through a simple eye of the head.
PI values were tested before the training and a day after the training in the same group by a Wilcoxon's-test.

[2] = system: aged crickets; assay: Olfactory associative learning test in aged crickets (age-related memory disorder, training four times); type: in vivo, Gryllus bimaculatus; conditions: 5 μM, 3 μl
Method: Male crickets about one week old (young) or three week old (aged) following molting into adult forms were used. Each of the crickets was placed into a 100 ml beaker three days before the experiment, and deprived of water for 2-3 days to enhance the desire of taking water. As the feed, about 10 pieces of insect feed were placed into the beaker. A 1-ml syringe was used for smell and reward associative conditioning upon learning/training. The syringe contained water as the reward while a piece of paper (3 mm×3 mm) perfumed with peppermint essence was pierced into the needle to about 1 cm from the tip thereof. In this learning/training, the filter paper on the needle was brought near the antennae of the cricket to allow it to smell for 3 seconds and then a drop of water was put out from the tip of the needle and applied to the mouth of the cricket. When the associative conditioning was conducted for four times, the conditionings were conducted at intervals of 5 minutes. Smell preference was examined by placing each cricket into a test arena. The arena consisted of a “standby chamber” and a “test chamber”. […] The smell source was a plastic pot containing filter paper perfumed with essence of a smell (peppermint or vanilla) and covered with a gauze lid. In the preference test, each cricket was placed into the test chamber and allowed to walk freely for 4 minutes to search for the two smell sources. Two minutes after the start of the test, a rotary board having the smell sources was rotated to reverse the positions of the vanilla and the peppermint smells. During the test, the time the cricket spent placing its mouth to the gauze of the smell source was measured as a visiting time to the smell source, and the ratio of the visiting times of the two types of smells (PI value: preference index) was calculated according to the following formula to assess the relative preference to the mint smell. PI value=Tp/(Tp+Tv)×100 • Tp: Searching time for smell associated with the reward (peppermint) • Tv: Searching time for smell not associated with the reward (vanilla) If the preferences for the two smells are equivalent, PI will be 50. Since crickets inherently prefer vanilla smell over peppermint smell, an average PI value prior to the learning/training is usually 25-35, The preference test was conducted before and after the learning/training to examine whether preference for the smell changes due to the learning/training. […] Melatonin, 6-HM, kynurenine, kynuramine and 8br-cGMP were purchased from SIGMA Aldrich, AFMK was purchased from Cayman Chemical, AMK was purchased from Toronto Research Chemicals and CHX was purchased from Wako Pure Chemical Industries. The drugs other than 8br-cGMP and CHX were first dissolved in ethanol and then diluted with physiological saline for crickets to the respective concentrations. In the administration experiment, 3 μl was administered using a 10-μl syringe to the brain via an aperture opened through a simple eye of the head. PI values were tested before the training and a day after the training in the same group by a Wilcoxon's-test.

[3] = system: young mice; assay: Object recognition test for young mice (melatonin and melatonin metabolites); type: in vivo, ICR mice; conditions: i.p. 60 minutes after one one-minute acquisition trial, test trial 24 hours later
Method: Two-month-old male ICR mice (young mice) were used. The rearing room was kept at 22° C. at cycles of 12 hours of light period/12 hours of dark period, and feed and drinking water were given freely. All of the experiments were conducted during the latter 6 hours of the light period.
Melatonin (MEL), N(1)-acetyl-N(2)-formyl-5-methoxykynuramine (AFMK), and N(1)-acetyl-5-methoxykynuramine (AMK) were used as drugs. Melatonin was purchased from SIGMA Aldrich, AFMK was purchased from Cayman Chemical, and AMK was purchased from Toronto Research Chemicals. AFMK and AMK were diluted with physiological saline and intraperitoneally administered at a dosage of 0.01 mg/kg bw, 0.1 mg/kg bw or 1.0 mg/kg bw. MEL was diluted with physiological saline containing 1 vol % ethanol, and intraperitoneally administered at a dosage of 1.0 mg/kg bw or 5.0 mg/kg bw. As controls, physiological saline or physiological saline containing 1 vol % ethanol was intraperitoneally administered.
Test was conducted in the same manner as “5.3 Object recognition test” in Example 5.
Processing was conducted in the same manner as “5.4 Statistical processing” in Example 5.

[4] = system: young crickets; assay: Olfactory associative learning test in young crickets (single-time training, memory a day after); type: in vivo, Gryllus bimaculatus; conditions: drinking 10 μl of aqueous solution (5 μM) 5 minutes after single-time training

Q: Which “long-term memory formation a day after the training” value ([1]; 0.2 μM, 3 μl to the brain, 20 minutes after single-time training) does the source give for COc1ccc2[nH]cc(CCNC(C)=O)c2c1 [melatonin, reference compound] here?
A: not

Q: What about the “long-term memory formation a day after the training” value ([1]; 1 μM, 3 μl to the brain, 20 minutes after single-time training) of the same molecule?
A: not

Q: And the “PI value for mint a day after the training versus PI value before the training” value ([1]; 5 μM to the brain 20 minutes before single-time training)?
A: significantly higher

Q: What about the “long-term memory formation a day after the training” value ([1]; 5 μM, 3 μl to the brain, 20 minutes after single-time training) of the same molecule?
A: long-term memories were formed

Q: What about the “long-term memory formation a day after the training” value ([1]; 5 μM, 3 μl, administered between 20 minutes before and 20 minutes after single-time training) of the same molecule?
A: long-term memory was formed

Q: And the “long-term memory formation a day after the training” value ([1]; 25 μM, 3 μl to the brain, 20 minutes after single-time training)?
A: formed

Q: What about the “administration concentration sufficient to form long-term memory” value ([1]; 3 μl to the brain 20 minutes after single-time training) of the same molecule?
A: 5 µM

Q: What about the “amount in 1 g of the food per kg of body weight” value ([1]; based on the result from ingesting 5 μM for 10 μl) of the same molecule?
A: ≥ 11.6 µg

Q: And the “PI value for mint a day after the training versus PI value before the training” value ([1]; melatonin 5 μM simultaneously with cycloheximide (10 mM), to the brain 20 minutes before single-time training)?
A: no significant difference

Q: And the “improvement in an age-related memory disorder” value ([2]; 20 minutes after training for four times)?
A: improvement in an age-related memory disorder was observed

Q: What about the “long-term memory formation a day after the training (improvement of age-related memory disorder)” value ([2]; 20 minutes before training for four times) of the same molecule?
A: a long-term memory was formed

Q: What about the “concentration at which the effect of inducing long-term memories was found” value [3] of the same molecule?
A: 5.0 mg/kg bw

Q: And the “long-term memory formation a day after the training by oral administration” value [4]?
A: long-term memory was formed
